Test results published in patent US11446287B2, “Compounds and methods for EP300 or CBP modulation and indications therefor” (Opna Immuno-Oncology SA, priority 2019, dated 2022).

Target: T1, Recombinant human BRD4 containing dual bromodomains (BRD4-BD12 (1-477)) (Homo sapiens, UniProt O60885)
T1 construct: Recombinant human BRD4 containing dual bromodomains (BRD4-BD12 (1-477)); made in house; host or cells: E. coli BL21-CodonPlus (DE3), modified pET vector
Assay: BRD4 Alphascreen binding assay
Outline: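 AlphaScreen proximity between Ni-chelate-bound BRD4-BD12 (1-477) and streptavidin-captured H4 K5/K8/K12/K16-acetyl peptide measured after 1 h room-temperature compound incubation and 30 min with 7.5 μg/ml beads. Buffer: 50 mM HEPES pH 7.5, 50 mM NaCl, 0.01% BSA, 0.01% Triton X-100; data plate-normalized and four-parameter fit for IC50.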

| SMILES | IC50 [µM] |
| --- | --- |
| CCOc1cc(C(=O)O)cc(OCC)c1-n1cc(-c2cnn(CCC#N)c2)c2ncc(-c3c(C)noc3C)cc21 [P-0266, 4-(3-(1-(2-cyanoethyl)-1H-pyrazol-4-yl)-6-(3,5-dimethylisoxazol-4-yl)-1H-pyrrolo[3,2-b]pyridin-1-yl)-3,5-diethoxybenzoic acid] | 1 to 8 |
| CCOc1cc(C(=O)O)cc(OCC)c1-n1cc(-c2cnn(CC(=O)N(C)C)c2)c2ncc(-c3c(C)noc3C)cc21 [P-0267, 4-(3-(1-(2-(dimethylamino)-2-oxoethyl)-1H-pyrazol-4-yl)-6-(3,5-dimethylisoxazol-4-yl)-1H-pyrrolo[3,2-b]pyridin-1-yl)-3,5-diethoxybenzoic acid] | 1 to 8 |
| Cc1noc(C)c1-c1cnc2c(c1)c(-c1cc(C(=O)O)ccc1OC(F)(F)F)cn2-c1ccc(F)cc1F [P-0268, 3-(1-(2,4-difluorophenyl)-5-(3,5-dimethylisoxazol-4-yl)-1H-pyrrolo[2,3-b]pyridin-3-yl)-4-(trifluoromethoxy)benzoic acid] | 1 to 8 |
| Cc1noc(C)c1-c1cnc2c(-c3ccc(F)cc3F)cn(-c3c(OC(C)C)cc(C(=O)O)cc3OC(C)C)c2c1 [P-0269, 4-(3-(2,4-difluorophenyl)-6-(3,5-dimethylisoxazol-4-yl)-1H-pyrrolo[3,2-b]pyridin-1-yl)-3,5-diisopropoxybenzoic acid] | 1 to 8 |
| CCOc1cc(C(=O)O)cc(OCC)c1-n1cc(CC2CCC2)c2ncc(-n3c(C)nnc3C)cc21 [P-0270, 4-(3-(cyclobutylmethyl)-6-(3,5-dimethyl-4H-1,2,4-triazol-4-yl)-1H-pyrrolo[3,2-b]pyridin-1-yl)-3,5-diethoxybenzoic acid] | 8 to 1000 |
| CCOc1cc(C(=O)O)cc(OCC)c1-n1cc(C2CCC(F)(F)CC2)c2ncc(-c3c(C)noc3C)cc21 [P-0271, 4-(3-(4,4-difluorocyclohexyl)-6-(3,5-dimethylisoxazol-4-yl)-1H-pyrrolo[3,2-b]pyridin-1-yl)-3,5-diethoxybenzoic acid] | 8 to 1000 |
| Cc1noc(C)c1-c1cnc2c(c1)c(-c1cnn(CC(=O)O)c1)cn2-c1ncccc1C#CC1CC1 [P-0272, 2-(4-(1-(3-(cyclopropylethynyl)pyridin-2-yl)-5-(3,5-dimethylisoxazol-4-yl)-1H-pyrrolo[2,3-b]pyridin-3-yl)-1H-pyrazol-1-yl)acetic acid] | 8 to 1000 |
| Cc1noc(C)c1-c1cnc2c(c1)c(-c1ccc(C(=O)O)cc1OC(F)F)cn2-c1ccccc1 [P-0273, 3-(difluoromethoxy)-4-(5-(3,5-dimethylisoxazol-4-yl)-1-phenyl-1H-pyrrolo[2,3-b]pyridin-3-yl)benzoic acid] | 1 to 8 |
| Cc1noc(C)c1-c1cnc2c(-c3ccccc3)cn(-c3cc(C(=O)O)ccc3OC(F)(F)F)c2c1 [P-0274, 3-(6-(3,5-dimethylisoxazol-4-yl)-3-phenyl-1H-pyrrolo[3,2-b]pyridin-1-yl)-4-(trifluoromethoxy)benzoic acid] | 1 to 8 |
| Cc1noc(C)c1-c1cnc2c(c1)c(-c1ccc(C(=O)O)cc1OC(C)C)cn2-c1ccccc1 [P-0275, 4-(5-(3,5-dimethylisoxazol-4-yl)-1-phenyl-1H-pyrrolo[2,3-b]pyridin-3-yl)-3-isopropoxybenzoic acid] | 1 to 8 |
| Cc1noc(C)c1-c1cnc2c(c1)c(-c1ccc(C(=O)O)cc1OC1CCC1)cn2-c1ccccc1 [P-0276, 3-cyclobutoxy-4-(5-(3,5-dimethylisoxazol-4-yl)-1-phenyl-1H-pyrrolo[2,3-b]pyridin-3-yl)benzoic acid] | 1 to 8 |
| Cc1noc(C)c1-c1cnc2c(c1)c(-c1ccc(C(=O)O)cc1OCC(F)F)cn2-c1ccccc1 [P-0277, 3-(2,2-difluoroethoxy)-4-(5-(3,5-dimethylisoxazol-4-yl)-1-phenyl-1H-pyrrolo[2,3-b]pyridin-3-yl)benzoic acid] | 1 to 8 |
| Cc1noc(C)c1-c1cnc2c(c1)c(-c1ccc(C(=O)O)cc1OCC(F)(F)F)cn2-c1ccccc1 [P-0278, 4-(5-(3,5-dimethylisoxazol-4-yl)-1-phenyl-1H-pyrrolo[2,3-b]pyridin-3-yl)-3-(2,2,2-trifluoroethoxy)benzoic acid] | 1 to 8 |
| Cc1noc(C)c1-c1cnc2c(c1)c(-c1ccc(C(=O)O)cc1OC(F)(F)F)cn2-c1ccc(F)cc1 [P-0279, 4-(5-(3,5-dimethylisoxazol-4-yl)-1-(4-fluorophenyl)-1H-pyrrolo[2,3-b]pyridin-3-yl)-3-(trifluoromethoxy)benzoic acid] | 1 to 8 |
| Cc1noc(C)c1-c1cnc2c(c1)c(-c1cnn(CC(=O)O)c1)cn2C(C1CC1)C1CC1 [P-0280, 2-(4-(1-(dicyclopropylmethyl)-5-(3,5-dimethylisoxazol-4-yl)-1H-pyrrolo[2,3-b]pyridin-3-yl)-1H-pyrazol-1-yl)acetic acid] | 8 to 1000 |
| Cc1noc(C)c1-c1cnc2c(c1)c(-c1ccc(C(=O)O)cc1OC(F)(F)F)cn2-c1cnc(N2CCC2)nc1 [P-0281, 4-(1-(2-(azetidin-1-yl)pyrimidin-5-yl)-5-(3,5-dimethylisoxazol-4-yl)-1H-pyrrolo[2,3-b]pyridin-3-yl)-3-(trifluoromethoxy)benzoic acid] | 1 to 8 |
| Cc1noc(C)c1-c1cnc2c(c1)c(-c1ccc(C(=O)O)cc1OC(F)(F)F)cn2-c1ccc(S(C)(=O)=O)cc1 [P-0282, 4-(5-(3,5-dimethylisoxazol-4-yl)-1-(4-(methylsulfonyl)phenyl)-1H-pyrrolo[2,3-b]pyridin-3-yl)-3-(trifluoromethoxy)benzoic acid] | 0.0001 to 1 |
| Cc1noc(C)c1-c1cnc2c(c1)c(-c1c(Cl)cc(C(=O)O)cc1OC(C)C)cn2C(C1CC1)C1CC1 [P-0283, 3-chloro-4-(1-(dicyclopropylmethyl)-5-(3,5-dimethylisoxazol-4-yl)-1H-pyrrolo[2,3-b]pyridin-3-yl)-5-isopropoxybenzoic acid] | 1 to 8 |
| Cc1noc(C)c1-c1cnc2c(c1)c(-c1cc(C(=O)O)ccc1OC(F)(F)F)cn2C(C1CC1)C1CC1 [P-0284, 3-(1-(dicyclopropylmethyl)-5-(3,5-dimethylisoxazol-4-yl)-1H-pyrrolo[2,3-b]pyridin-3-yl)-4-(trifluoromethoxy)benzoic acid] | 8 to 1000 |
| Cc1noc(C)c1-c1cnc2c(c1)c(-c1ccc(C(=O)O)cc1OC(F)(F)F)cn2[C@H]1CCOC1 [P-0285, (S)-4-(5-(3,5-dimethylisoxazol-4-yl)-1-(tetrahydrofuran-3-yl)-1H-pyrrolo[2,3-b]pyridin-3-yl)-3-(trifluoromethoxy)benzoic acid] | 8 to 1000 |
| Cc1noc(C)c1-c1cnc2c(c1)c(-c1ccc(C(=O)O)cc1OC(F)(F)F)cn2[C@@H]1CCOC1 [P-0286, (R)-4-(5-(3,5-dimethylisoxazol-4-yl)-1-(tetrahydrofuran-3-yl)-1H-pyrrolo[2,3-b]pyridin-3-yl)-3-(trifluoromethoxy)benzoic acid] | 8 to 1000 |
| CCn1cc(-n2cc(-c3ccc(C(=O)O)cc3OC(F)(F)F)c3cc(-c4c(C)noc4C)cnc32)c(C)n1 [P-0287, 4-(5-(3,5-dimethylisoxazol-4-yl)-1-(1-ethyl-3-methyl-1H-pyrazol-4-yl)-1H-pyrrolo[2,3-b]pyridin-3-yl)-3-(trifluoromethoxy)benzoic acid] | 1 to 8 |
| Cc1nn(C(F)F)cc1-n1cc(-c2ccc(C(=O)O)cc2OC(F)(F)F)c2cc(-c3c(C)noc3C)cnc21 [P-0288, 4-(1-(1-(difluoromethyl)-3-methyl-1H-pyrazol-4-yl)-5-(3,5-dimethylisoxazol-4-yl)-1H-pyrrolo[2,3-b]pyridin-3-yl)-3-(trifluoromethoxy)benzoic acid] | 1 to 8 |
| Cc1noc(C)c1-c1cnc2c(c1)c(-c1ccc(C(=O)O)cc1OC(F)(F)F)cn2-c1cnn(C(F)F)c1C [P-0289, 4-(1-(1-(difluoromethyl)-5-methyl-1H-pyrazol-4-yl)-5-(3,5-dimethylisoxazol-4-yl)-1H-pyrrolo[2,3-b]pyridin-3-yl)-3-(trifluoromethoxy)benzoic acid] | 1 to 8 |
| Cc1noc(C)c1-c1cnc2c(c1)c(-c1ccc(C(=O)O)cc1OC(F)(F)F)cn2C1CCNCC1 [P-0290, 4-(5-(3,5-dimethylisoxazol-4-yl)-1-(piperidin-4-yl)-1H-pyrrolo[2,3-b]pyridin-3-yl)-3-(trifluoromethoxy)benzoic acid] | 8 to 1000 |
| CC(=O)N1CCC(n2cc(-c3ccc(C(=O)O)cc3OC(F)(F)F)c3cc(-c4c(C)noc4C)cnc32)CC1 [P-0291, 4-(1-(1-acetylpiperidin-4-yl)-5-(3,5-dimethylisoxazol-4-yl)-1H-pyrrolo[2,3-b]pyridin-3-yl)-3-(trifluoromethoxy)benzoic acid] | 8 to 1000 |
| Cc1noc(C)c1-c1cnc2c(c1)c(-c1ccc(C(=O)O)cc1OC(F)(F)F)cn2C1CCN(S(C)(=O)=O)CC1 [P-0292, 4-(5-(3,5-dimethylisoxazol-4-yl)-1-(1-(methylsulfonyl)piperidin-4-yl)-1H-pyrrolo[2,3-b]pyridin-3-yl)-3-(trifluoromethoxy)benzoic acid] | 1 to 8 |
| Cc1noc(C)c1-c1cnc2c(c1)c(-c1ccc(C(=O)O)cc1OC(F)(F)F)cn2-c1ccncc1F [P-0293, 4-(5-(3,5-dimethylisoxazol-4-yl)-1-(3-fluoropyridin-4-yl)-1H-pyrrolo[2,3-b]pyridin-3-yl)-3-(trifluoromethoxy)benzoic acid] | 1 to 8 |
| Cc1noc(C)c1-c1cnc2c(c1)c(-c1ccc(C(=O)O)cc1OC(F)(F)F)cn2-c1cnn(CC(C)(C)O)c1 [P-0294, 4-(5-(3,5-dimethylisoxazol-4-yl)-1-(1-(2-hydroxy-2-methylpropyl)-1H-pyrazol-4-yl)-1H-pyrrolo[2,3-b]pyridin-3-yl)-3-(trifluoromethoxy)benzoic acid] | 0.0001 to 1 |
| CCOc1cc(C(=O)O)ncc1-c1cn(-c2ccc(F)cc2F)c2ncc(-c3c(C)noc3C)cc12 [P-0295, 5-(1-(2,4-difluorophenyl)-5-(3,5-dimethylisoxazol-4-yl)-1H-pyrrolo[2,3-b]pyridin-3-yl)-4-ethoxypicolinic acid] | 1 to 8 |
